Reference: patent US9766227B2, “Screening method for substance having hemocyte maturation acceleration action” (Bloom Technology Co., Ltd., priority 2010, dated 2017)
Where two headings read alike, the source gives them in different places.

How the values were obtained:
K562 cells [1] = details: 0.125 mM, with 30 μM hemin
From the text: Cells were collected on days 0, 3, 6, 12, and 15, and the ability to assist induction of erythrocyte differentiation was examined using cell surface markers, glycophorin A (CD235a) and transferrin receptor (CD71), as indicators.
CD235(+/−)/CD71(++) represent K562 proerythroblast-like cells, CD235(+)/CD71(++) represent K562 basophilic erythroblast-like cells, CD235(+)/CD71(+) represent K562 polychromatic erythroblast-like cells, and CD235(+)/CD71(+/−) represent K562 orthochromatic erythroblast-like cells or reticulocytes. K562 cells are CD71-non-positive cells positioned upstream of pro-erythroblasts.
Using the same system that uses K562 cells for evaluating induction of differentiation, CD235/CD71 which are the existing indicators for induction of erythrocyte differentiation, and the new indicators lactoferrin (Lf)/C5a receptor (CD88) were compared and examined. Cells were collected on days 0, 3, 6, 12, and 15, and the ability to induce differentiation into erythrocytes was examined using Lf/CD88 as the indicators.
Using the same system that uses K562 cells for evaluating induction of differentiation, CD235/CD71 which are the existing indicators for induction of erythrocyte differentiation, and the new indicators FAS ligand (CD178)/C5a receptor (CD88) were compared and examined. Cells were collected on days 0, 3, 6, 12, and 15, and the ability to induce differentiation into erythrocytes was examined using CD178/CD88 as the indicator.

K562 cells [2] = test: Expression pattern of RGS proteins in hemin-stimulated K562 cell maturation, Western blotting; assay type: cell-based; details: 30 μM hemin, days 3, 6, 9 and 12
Description: K562 cells (5×10^6 cells/10 mL) were cultured by adding 4.5 g glucose/30 μM hemin to a DMEM solvent, and 2.5 mL of the same solvent was added at 3-day intervals. Cells were collected on days 3, 6, 9, and 12, and were dissolved in 100 μL of SDS Loading Buffer (6 M Urea). 10 μL were run on a 12% SDS-GEL, and after transferring to a blotting membrane, this was reacted with respective antibodies to the R4 RGS family (herein RGS1/RGS3/RGS16/RGS18) and another RGS family (herein, RGS14).

Substance | induction of differentiation after erythroblast formation (K562 cells [1]; markers CD178/CD88) | number of days taken for maturation to form erythroblasts (K562 cells [1]; markers CD178/CD88) | induction of differentiation after erythroblast formation (K562 cells [1]; markers CD235/CD71) | number of days taken for maturation until erythroblast formation (K562 cells [1]; markers CD235/CD71) | induction of differentiation after erythroblast formation (K562 cells [1]; markers Lf/CD88) | number of days taken for maturation until erythroblast formation (K562 cells [1]; markers Lf/CD88) | expression of RGS14 (K562 cells [2]) | expression of the R4 RGS family (RGS1/RGS3/RGS16/RGS18) (K562 cells [2])
manganese chloride | inhibited | reduced | inhibited | reduced | inhibited | reduced |  | 
hemin |  |  |  |  |  |  | did not change | increased
